Tests used:
platelets [1] = experiment: Partitioning of S-59 in platelet concentrate before and after UVA illumination; format: in vitro ADME; settings: % of the original S-59, after UVA
Text: During the UVA illumination process, S-59 undergoes a photochemical reaction to form several low molecular weight photoproducts in addition to associating with macromolecules in both the platelet and the plasma fractions. […] This fraction of low molecular weight photoproducts is removed during the scrub process, and their removal can be monitored both by HPLC and by radioactivity measurement using ^3H-labeled S-59.
The S-59 which is not amenable to removal by the scrub/capture process can also be monitored using ^3H-labeled S-59.

platelets [2] = experiment: S-59 uptake by platelets and effect of pre-incubation on adsorption kinetics (Example 23); format: in vitro ADME, human; settings: FIG. 25A
Procedure: As discussed previously, S-59 uptake by platelets can occur over a period of several hours before saturation occurs. FIG. 25A graphically depicts S-59 (Co=50 μM) uptake by platelets over time (top) and S-59 release by platelets over time (bottom). As shown in the top graph, S-59 equilibrium is achieved at approximately two hours.
This example is directed to the question of whether partitioning of S-59 into platelets has a significant effect on adsorption kinetics. The adsorption kinetics of PC pre-incubated with S-59 for 24 hours prior to adsorption were compared to adsorption kinetics in PC without a pre-incubation period. […] Samples of PC were removed at various time points and analyzed for levels of residual S-59.

R17 bacteriophage = R17 bacteriophage inactivation at constant concentration, varying doses of UV light; format: cell-based; settings: 1.0-3.0 J/cm^2, FIGS. 11-17
Procedure: Compounds of the present invention were also tested at a constant concentration for varying doses of UV light. Three sets of 1.5 mL tubes were prepared containing 0.6mL aliquots of R17 in DMEM (prepared as described above). The compound tested was added at the desired concentration and the samples were vortexed. The samples were then irradiated at intervals of 1.0 J/cm^2, until 3.0 J/cm^2 was reached. Between each 1.0 J/cm^2 interval, 100 μL was removed from each sample and placed in the first corresponding dilution tube, then five sequential dilutions were performed for each compound tested, at all 3 irradiation doses, as described above in this example.
Then 50 μL of Hfr 3000 bacteria was added to each tube, 3 mL of top agar was added and the tube contents were vortexed The contents of each tube was poured into its own LB plate and the plates were incubated overnight at 37° C. Plaques were counted by visual inspection the following morning.

Compound	photo-reaction products of S-59 (platelets [1])	time to S-59 uptake equilibrium in platelets (platelets [2])	R17 inactivation efficiency compared with AMT (in words) (R17 bacteriophage)
Cc1oc2c(C)c3oc(=O)cc(C)c3cc2c1COCCN [Compound 2, 4′-(4-amino-2-oxa)butyl-4,5′,8-trimethylpsoralen]	40-50%	approximately two	–
Cc1oc2c(C)c3oc(=O)cc(C)c3cc2c1CNCCCCN [Compound 6, 4′-(6-amino-2-aza)hexyl-4,5′,8-trimethylpsoralen]	–	–	more efficient at inactivating R17 than was AMT

Reference: patent US6544727B1, “Methods and devices for the removal of psoralens from blood products” (Cerus Corporation, priority 1995, dated 2003)
